Assay results as given in patent publication EP3965790B1, “PENTACYCLIC TRITERPENES IN THE TREATMENT OF VITILIGO” (Pierre Fabre Dermo-Cosmétique, priority 2019, dated 2020).

What was measured:
[1] = ORAC (Oxygen Radical Antioxydant Capacity) antioxidant test in tubo; conditions: for Indice ORAC / 100g triterpènes (x 1000): Trolox standard, AAPH, fluorescéine
Excerpt: Le stress oxydatif fait partie des causes possibles de l'apparition du vitiligo. Cette expérience a pour objectif de mesurer l'activité antioxydante de chaque triterpène pentacyclique et des deux extraits, en comparaison avec un témoin positif bien connu, la vitamine C. La méthode in tubo utilisée est celle d'évaluation ORAC (Oxygen Radical Antioxydant Capacity) adaptée de celle décrite par Davalos et al. (J Agric Food Chem 52(1):48-54, 2004). L'indice ORAC permet d'évaluer la capacité anti-oxydante de chaque composé testé dans l'exemple 2. Ce test permet d'évaluer et de classer les différents composés testés suivant leur pouvoir anti-oxydant vis-à-vis des radicaux libres péroxyl. Le AAPH (2,2'-azobis-2-méthyl-propanimidamide, dihydrochloride) est à l'origine de radicaux libres péroxyl. Ce test est utilisé pour mimer la cinétique de dégradation de la fluorescéine par les radicaux libres. Ceci se traduit par une diminution de fluorescence en fonction du temps et de la concentration en actif anti-oxydant présent dans l'extrait testé. L'acide 3,4-dihydro-6-hydroxy-2,5,7,8-tétraméthyl-2H-1-benzopyran-2-carboxylique ou Trolox est utilisé comme standard, il s'agit d'un analogue hydrophile de la vitamine E (anti-oxydant connu). L'ajout de Trolox (gamme de référence) ou d'extrait ou triterpène pentacyclique, protège la fluorescéine de la dégradation. Ceci permet d'évaluer une activité antioxydante mesurée par rapport à une gamme de Trolox.
Toutes les solutions sont réalisées dans du tampon phosphate 75 mM, pH à 7,6. La fluorescéine est à 1,17 µM (solution mère […]). AAPH à 125 mM est préparé extemporanément, Trolox à 1 mM. Dans une plaque de 96 puits noir, il est déposé 20 µl d'antioxydant (gamme Trolox ou composé à tester), 160 µl de fluorescéine à 1,17 µM. la plaque est recouverte d'un film, puis est incubée pendant 15 minutes à 37°C. la solution de AAPH est ajoutée manuellement et le plus rapidement possible à raison de 20 µl par puits. La plaque est alors incubée immédiatement à 37°C dans un spectrofluorimètre (SpectraMax). Une lecture est enregistrée toutes les minutes pendant 90 minutes. La longueur d'onde d'excitation est de 485 nm et la longueur d'onde d'émission est de 520 nm. Chaque essai est réalisé en triplicata.
Les aires sous la courbe (AUC) pour chacun des essais sont calculées. Les AUC nets sont déterminées de la façon suivante : AUC net = AUC point de gamme ou échantillon−AUC blanc. [formula]
La droite d'étalonnage est établie, la concentration en Trolox (µM) en fonction de l'AUC net. L'équation de la droite est utilisée pour déterminer un équivalent en Trolox (µM) pour chacun des échantillons dosés.
Eq Trolox en µM = a x (AUC net)2 + b x (AUC net), a et b sont déterminés par l'équation de la droite.
Pour être dosés, les échantillons sont dilués, de sorte que les valeurs mesurées soient comprises dans la gamme étalon utilisée pour le dosage. L'acide ascorbique (vitamine C) est utilisé comme référence.
L'indice ORAC correspond à des […] de Trolox / 100g de matières.
Les résultats ci-dessous ont été calculés pour 100g d'extrait en Triterpènes, Tingénine A, Tingénine B et célastrol, soit le calcul : [formula]

IL-23A = experiment: RT-qPCR gene expression in cytokine-stimulated keratinocytes; type: cell-based, humains; conditions: 24 h
IL-8 [2] = experiment: ELISA of IL-8 release by cytokine-stimulated keratinocytes; type: cell-based, humains; conditions: for effet sur la libération d'IL-8 (in words): concentrations as in Tableau 5 (JAK 10 µM; TA, TB 500 ng/ml; Célastrol 100 ng/ml; extrait 1 200 ng/ml; extrait 2 150 ng/ml)
IL-8 [3] = experiment: RT-qPCR gene expression in cytokine-stimulated keratinocytes; type: cell-based, humains; conditions: 24 h
CCL5 = experiment: as above; type: cell-based, humains; conditions: 24 h
CXCL11 = experiment: as above; type: cell-based, humains; conditions: 24 h
CCL20 = experiment: as above; type: cell-based, humains; conditions: 24 h
DEFB4A = experiment: as above; type: cell-based, humains; conditions: 24 h
CXCL16 = experiment: as above; type: cell-based, humains; conditions: 24 h
MMP-9 [4] = experiment: as above; type: cell-based, humains; conditions: 24 h
S100A7 = experiment: as above; type: cell-based, humains; conditions: 24 h
CXCL10 = experiment: as above; type: cell-based, humains; conditions: 24 h
MMP-9 [5] = experiment: ELISA of MMP-9 release by cytokine-stimulated keratinocytes; type: cell-based, humains; conditions: for Libération de MMP-9 (pg/ml) ± sem: stimulated keratinocytes, 48 h, supernatant; for effet sur la libération de MMP-9 (in words): concentrations as in Tableau 5 (JAK 10 µM; TA, TB 500 ng/ml; Célastrol 100 ng/ml; extrait 1 200 ng/ml; extrait 2 150 ng/ml)
[6] = 15 ng/ml, stimulated keratinocytes
[7] = 45 ng/ml, stimulated keratinocytes
[8] = 135 ng/ml, stimulated keratinocytes
[9] = 10µM, stimulated keratinocytes (IL-17, Oncostatin M, TNFα 3ng/ml)
[10] = 405 ng/ml, stimulated keratinocytes

Compound | % Stimulation / Gènes témoins, IL-23A (IL-23A; [7]) [%] | % Stimulation / Gènes témoins, IL-23A (IL-23A; [8]) [%] | effet sur la libération d'IL-8 (in words) (IL-8 [2]) | % Stimulation / Gènes témoins, IL-8 (IL-8 [3]; [7]) [%] | % Stimulation / Gènes témoins, IL-8 (IL-8 [3]; [8]) [%] | % Stimulation / Gènes témoins, CCL5 (CCL5; [7]) [%] | % Stimulation / Gènes témoins, CCL5 (CCL5; [8]) [%] | % Stimulation / Gènes témoins, CXCL11 (CXCL11; [7]) [%] | % Stimulation / Gènes témoins, CXCL11 (CXCL11; [8]) [%] | % Stimulation / Gènes témoins, CCL20 (CCL20; [7]) [%] | % Stimulation / Gènes témoins, CCL20 (CCL20; [8]) [%] | % Stimulation / Gènes témoins, DEFB4A (DEFB4A; [7]) [%] | % Stimulation / Gènes témoins, DEFB4A (DEFB4A; [8]) [%] | % Stimulation / Gènes témoins, CXCL16 (CXCL16; [7]) [%] | % Stimulation / Gènes témoins, CXCL16 (CXCL16; [8]) [%] | % Stimulation / Gènes témoins, MMP-9 (MMP-9 [4]; [7]) [%] | % Stimulation / Gènes témoins, MMP-9 (MMP-9 [4]; [8]) [%] | % Stimulation / Gènes témoins, S100A7 (S100A7; [7]) [%] | % Stimulation / Gènes témoins, S100A7 (S100A7; [8]) [%] | effet sur la libération de MMP-9 (in words) (MMP-9 [5]) | also measured
CC1=C(O)C(=O)C=C2C1=CC=C1[C@@]2(C)CC[C@@]2(C)[C@@H]3C[C@](C)(C(=O)O)CC[C@]3(C)CC[C@]12C [Célastrol] | 41 | 15 | effet inhibiteur | 36 | 5 | 12 | 3 | 5 | 1 | 35 | 11 | 32 | 3 | 51 | 23 | 88 | 9 | 53 | 16 | effet inhibiteur | Indice ORAC / 100g triterpènes (x 1000) ([1]; 30 µg/ml): 126 466 / 100g triterpènes (x 1000); % Stimulation / Gènes témoins, IL-23A (IL-23A; [6]): 63%; Libération d'IL-8 (pg/ml) ± sem (IL-8 [2]; 100 ng/ml, stimulated keratinocytes, 48 h, supernatant): 83 ± 7 pg/mL; % Stimulation / Gènes témoins, IL-8 (IL-8 [3]; [6]): 100%; % Stimulation / Gènes témoins, CCL5 (CCL5; [6]): 79%; % Stimulation / Gènes témoins, CXCL11 (CXCL11; [6]): 59%; % Stimulation / Gènes témoins, CCL20 (CCL20; [6]): 86%; % Stimulation / Gènes témoins, DEFB4A (DEFB4A; [6]): 90%; % Stimulation / Gènes témoins, CXCL16 (CXCL16; [6]): 95%; % Stimulation / Gènes témoins, MMP-9 (MMP-9 [4]; [6]): 139%; % Stimulation / Gènes témoins, S100A7 (S100A7; [6]): 78%; % Stimulation / Gènes témoins, CXCL10 (CXCL10; [6]): 72%; % Stimulation / Gènes témoins, CXCL10 (CXCL10; [7]): 20%; % Stimulation / Gènes témoins, CXCL10 (CXCL10; [8]): 10%; Libération de MMP-9 (pg/ml) ± sem (MMP-9 [5]; 100 ng/ml): 395 ± 15 pg/mL
CC(C)(C)c1nc2c3cc[nH]c(=O)c3c3cc(F)ccc3c2[nH]1 [Inhibiteur JAK, reference compound] | – | – | inhibe fortement et statistiquement | – | – | – | – | – | – | – | – | – | – | – | – | – | – | – | – | inhibe fortement et statistiquement | % Stimulation / Gènes témoins, IL-23A (IL-23A; [9]): 67%; % Stimulation / Gènes témoins, IL-8 (IL-8 [3]; [9]): 18%; % Stimulation / Gènes témoins, CCL5 (CCL5; [9]): 16%; % Stimulation / Gènes témoins, CXCL11 (CXCL11; [9]): 14%; % Stimulation / Gènes témoins, CCL20 (CCL20; [9]): 292%; % Stimulation / Gènes témoins, DEFB4A (DEFB4A; [9]): 7%; % Stimulation / Gènes témoins, CXCL16 (CXCL16; [9]): 76%; % Stimulation / Gènes témoins, MMP-9 (MMP-9 [4]; [9]): 40%; % Stimulation / Gènes témoins, S100A7 (S100A7; [9]): 25%; % Stimulation / Gènes témoins, CXCL10 (CXCL10; [9]): 38%; Libération de MMP-9 (pg/ml) ± sem (MMP-9 [5]; 10 µM): 389 ± 18 pg/mL
CC1=C(O)C(=O)C=C2C1=CC=C1[C@@]2(C)CC[C@@]2(C)C3C[C@@H](C)C(=O)C[C@]3(C)CC[C@]12C (stereo partly shown) [Tingénine A] | 123 | 102 | effet inhibiteur | 113 | 125 | 92 | 64 | 107 | 85 | 112 | 124 | 81 | 63 | 116 | 93 | 98 | 93 | 91 | 91 | effet inhibiteur | Indice ORAC / 100g triterpènes (x 1000) ([1]; 0,75 µg/ml): 33 960 / 100g triterpènes (x 1000); pouvoir anti-oxydant compared with vitamine C (in words) ([1]; comparison of ORAC indices of Tableau 6): inférieur; % Stimulation / Gènes témoins, IL-23A (IL-23A; [10]): 55%; % Stimulation / Gènes témoins, IL-8 (IL-8 [3]; [10]): 53%; % Stimulation / Gènes témoins, CCL5 (CCL5; [10]): 19%; % Stimulation / Gènes témoins, CXCL11 (CXCL11; [10]): 23%; % Stimulation / Gènes témoins, CCL20 (CCL20; [10]): 80%; % Stimulation / Gènes témoins, DEFB4A (DEFB4A; [10]): 22%; % Stimulation / Gènes témoins, CXCL16 (CXCL16; [10]): 50%; % Stimulation / Gènes témoins, MMP-9 (MMP-9 [4]; [10]): 34%; % Stimulation / Gènes témoins, S100A7 (S100A7; [10]): 70%; % Stimulation / Gènes témoins, CXCL10 (CXCL10; [7]): 108%; % Stimulation / Gènes témoins, CXCL10 (CXCL10; [8]): 80%; % Stimulation / Gènes témoins, CXCL10 (CXCL10; [10]): 31%; Libération de MMP-9 (pg/ml) ± sem (MMP-9 [5]; 500 ng/ml): 787 ± 105 pg/mL
O=C1O[C@H]([C@@H](O)CO)C(O)=C1O [Vitamine C, acide ascorbique, reference compound] | – | – | – | – | – | – | – | – | – | – | – | – | – | – | – | – | – | – | – | – | Indice ORAC / 100g triterpènes (x 1000) ([1]; 3 µg/ml): 69 813 / 100g triterpènes (x 1000)
Tingénine B | 80 | 72 | effet inhibiteur | 96 | 70 | 68 | 55 | 78 | 57 | 105 | 85 | 67 | 48 | 83 | 77 | 88 | 63 | 76 | 63 | effet inhibiteur | Indice ORAC / 100g triterpènes (x 1000) ([1]; 7,5 µg/ml): 124 320 / 100g triterpènes (x 1000); % Stimulation / Gènes témoins, IL-23A (IL-23A; [10]): 34%; % Stimulation / Gènes témoins, IL-8 (IL-8 [3]; [10]): 44%; % Stimulation / Gènes témoins, CCL5 (CCL5; [10]): 19%; % Stimulation / Gènes témoins, CXCL11 (CXCL11; [10]): 27%; % Stimulation / Gènes témoins, CCL20 (CCL20; [10]): 82%; % Stimulation / Gènes témoins, DEFB4A (DEFB4A; [10]): 16%; % Stimulation / Gènes témoins, CXCL16 (CXCL16; [10]): 54%; % Stimulation / Gènes témoins, MMP-9 (MMP-9 [4]; [10]): 32%; % Stimulation / Gènes témoins, S100A7 (S100A7; [10]): 57%; % Stimulation / Gènes témoins, CXCL10 (CXCL10; [7]): 93%; % Stimulation / Gènes témoins, CXCL10 (CXCL10; [8]): 83%; % Stimulation / Gènes témoins, CXCL10 (CXCL10; [10]): 30%; Libération de MMP-9 (pg/ml) ± sem (MMP-9 [5]; 500 ng/ml): 828 ± 31 pg/mL
